According to PubChem BioAssay (NCI):
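Where inhibition never reached the appropriate level, the endpoint shown equals the highest concentration tested. Otherwise, values were interpolated linearly from a five-concentration, 48-hour dose response in 96-well plates. The concentration for full growth arrest is given as TGI.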

Columns and labels:
Test in all cases: NCI tumour cell line growth inhibition, 48 h
A549 NSCLC = tested on: A549 NSCLC
ACHN renal = tested on: ACHN renal
HCC-2998 colon = tested on: HCC-2998 colon
K-562 leukemia = tested on: K-562 leukemia
NCI-H23 lung = tested on: NCI-H23 lung
OVCAR-5 ovarian = tested on: OVCAR-5 ovarian
OVCAR-8 ovarian = tested on: OVCAR-8 ovarian
RPMI-8226 leukemia = tested on: RPMI-8226 leukemia
SF-295 CNS = tested on: SF-295 CNS
SK-MEL-28 melanoma = tested on: SK-MEL-28 melanoma
SR leukemia = tested on: SR leukemia
SW-620 colon = tested on: SW-620 colon
UO-31 renal = tested on: UO-31 renal
HL-60(TB) leukemia = tested on: HL-60(TB) leukemia
HOP-92 NSCLC = tested on: HOP-92 NSCLC
RXF 393 renal = tested on: RXF 393 renal
TK-10 renal = tested on: TK-10 renal
HS 578T breast = tested on: HS 578T breast
MDA-MB-435 = tested on: MDA-MB-435
T-47D breast = tested on: T-47D breast

| SMILES | TGI (A549 NSCLC) [µM] | TGI (ACHN renal) [µM] | TGI (HCC-2998 colon) [µM] | TGI (K-562 leukemia) [µM] | TGI (NCI-H23 lung) [µM] | TGI (OVCAR-5 ovarian) [µM] | TGI (OVCAR-8 ovarian) [µM] | TGI (RPMI-8226 leukemia) [µM] | TGI (SF-295 CNS) [µM] | TGI (SK-MEL-28 melanoma) [µM] | TGI (SR leukemia) [µM] | TGI (SW-620 colon) [µM] | TGI (UO-31 renal) [µM] | TGI (HL-60(TB) leukemia) [µM] | TGI (HOP-92 NSCLC) [µM] | TGI (RXF 393 renal) [µM] | TGI (TK-10 renal) [µM] | TGI (HS 578T breast) [µM] | TGI (MDA-MB-435) [µM] | TGI (T-47D breast) [µM] |
| --- | --- | --- | --- | --- | --- | --- | --- | --- | --- | --- | --- | --- | --- | --- | --- | --- | --- | --- | --- | --- |
| CO/S(=N/S(=O)(=O)c1ccccc1)c1ccccc1[N+](=O)[O-] (stereo not given) | > 100 | > 100 | > 100 | > 100 | > 100 | > 100 | > 100 | > 100 | > 100 | > 100 | > 100 | > 100 | > 100 | – | – | – | – | – | – | – |
| O=CC1=CCCN(CCc2c[nH]c3ccccc23)C1 | > 393 | 125 | 128 | > 393 | 101 | 126 | 206 | > 393 | 112 | 41.1 | > 393 | 89.9 | – | 91.3 | 121 | 85.8 | 140 | – | – | – |
| C/C1=C\[C@@H](C)C[C@@H](C)OC(=O)[C@@H](C)NC(=O)[C@H](Cc2ccc(O)c(Br)c2)N(C)C(=O)CNC(=O)[C@H](C)C1 | > 100 | 0.249 | 70.1 | > 100 | – | > 100 | > 40.4 | 56.1 | 5.55 | 17.3 | – | > 100 | 0.127 | < 0.01 | 0.0993 | < 0.0429 | 0.26 | 0.69 | > 44.3 | – |
| CS(=O)(=O)c1ccc(C(=O)O[C@@H]2C(=O)N3CC[C@H]4OC(O)[C@@H]2[C@H]43)cc1 (stereo not given in full) | > 100 | > 100 | > 100 | > 100 | > 100 | > 100 | > 100 | > 100 | > 100 | > 100 | > 100 | > 100 | > 100 | – | – | > 100 | > 100 | – | > 100 | > 100 |
| COc1ccc(C/C=C(\C)CCO)cc1 | > 100 | > 100 | – | > 100 | > 100 | > 100 | > 100 | 89.8 | > 100 | – | > 100 | > 100 | > 100 | – | > 100 | > 100 | > 100 | > 100 | > 100 | – |
| COc1ccc(N[C@H](CS(=O)c2ccc(C)cc2)C(F)(F)F)cc1 (stereo not given in full) | > 100 | > 100 | > 100 | > 100 | > 100 | > 100 | > 100 | – | > 100 | > 100 | > 100 | > 100 | > 100 | > 100 | > 100 | > 100 | > 100 | – | > 100 | > 100 |
| CSc1nc2nccnc2c(=O)[nH]1 | > 100 | > 100 | > 100 | > 100 | > 100 | > 100 | > 100 | > 100 | > 100 | > 100 | > 100 | > 100 | > 100 | > 100 | > 100 | > 100 | > 100 | – | – | – |
| O=c1c2ccccc2ncn1COCc1ccccc1 | > 100 | > 100 | > 100 | > 100 | – | > 100 | > 100 | – | > 100 | > 100 | > 100 | > 100 | > 100 | > 100 | > 100 | > 100 | > 100 | – | > 100 | – |
| CCCC(=O)Oc1c2ccsc2c(OC(=O)CCC)c2ccsc12 | 6.84 | 9.99 | 6.71 | 8.46 | 3.64 | 7.36 | 2.02 | 5.48 | 0.885 | 1.59 | 7.32 | 8.9 | 5.11 | 3.79 | 3.06 | 5.86 | 7.67 | – | 0.586 | 12.1 |
| CC1=C(C(=O)O)N2C(=O)[C@@H](NC(=O)C(c3ccccc3)N3CSC(=S)N(C(C)C)C3)C2SC1 (stereo not given in full) | – | > 100 | – | > 100 | > 100 | > 100 | > 100 | > 100 | > 100 | > 100 | – | – | > 100 | > 100 | > 100 | – | > 100 | – | – | – |
| CCCNC(=O)Cn1c2c(c3ccccc31)CCCC2 | > 100 | > 100 | > 100 | > 100 | > 100 | > 100 | > 100 | > 100 | > 100 | > 100 | > 100 | > 100 | 89.9 | > 100 | > 100 | – | > 100 | 68.8 | > 100 | – |
| Cc1cc(OP2(=O)NCc3ccncc3O2)ccc1Cl (stereo not given) | > 100 | > 100 | > 100 | > 100 | > 100 | > 100 | > 100 | > 100 | > 100 | > 100 | > 100 | > 100 | > 100 | – | > 100 | > 100 | – | – | > 100 | > 100 |
| OC(c1cc2ccccc2[nH]1)C(O)(c1cc2ccccc2[nH]1)c1cc2ccccc2[nH]1 (stereo not given) | 63 | 50.1 | 44.3 | > 245 | 21 | 102 | 75 | > 245 | 31.3 | 55.1 | > 245 | 43.1 | – | 127 | 50.1 | 29.1 | 90.3 | – | – | – |
| O=C(NC1CCCCC1)NC12CC3CC(CC(F)(C3)C1)C2 | > 100 | > 100 | > 100 | > 100 | > 100 | > 100 | > 100 | > 100 | – | > 100 | – | > 100 | > 100 | > 100 | > 100 | > 100 | > 100 | – | – | – |
| CC1=C(O)C(=O)C2C(=O)C1C(C)C2c1ccccc1 (stereo not given) | > 100 | > 100 | > 100 | > 100 | > 100 | > 100 | > 100 | > 100 | > 100 | > 100 | > 100 | > 100 | > 100 | – | > 100 | > 100 | > 100 | – | – | – |
| CC(C)(Oc1ccc2c(=O)cc(-c3ccc(Cl)cc3)oc2c1)C(=O)Nc1c(Cl)cccc1Cl | > 100 | – | – | > 100 | > 100 | > 100 | > 100 | > 100 | > 100 | > 100 | > 100 | > 100 | > 100 | > 100 | > 100 | – | > 100 | – | – | – |
| COC(=O)CC(C(C(=O)OCc1ccccc1)C(C)O)N1C(=O)OCC1c1ccccc1 (stereo not given) | > 100 | > 100 | > 100 | > 100 | > 100 | – | > 100 | > 100 | > 100 | > 100 | > 100 | > 100 | 90.6 | > 100 | – | > 100 | > 100 | – | – | – |
| CCCCN(C)CC(C(C)=O)C(c1ccccc1)c1c(O)c2ccccc2oc1=O (stereo not given) | > 100 | > 100 | – | > 100 | > 100 | > 100 | > 100 | > 100 | > 100 | > 100 | > 100 | > 100 | > 100 | > 100 | – | > 100 | > 100 | – | – | – |
| COC1CC(O[C@H]2CC[C@@]3(C)C(=CCC4(O)C3CCC35C(=O)OC6(C)O[C@@]43CCC65)C2)OC(C)C1O (stereo not given in full) | > 100 | > 100 | > 100 | > 100 | > 100 | > 100 | > 100 | > 100 | > 100 | > 100 | > 100 | – | > 100 | > 100 | – | > 100 | > 100 | – | – | – |
| CCCCC1Nc2ccccc2-c2ccnc(Cl)c21 (stereo not given) | > 100 | 68.4 | 69.4 | 62.8 | 31.4 | – | – | 31.9 | 47.7 | 46.5 | 51 | > 100 | 55.8 | 51.8 | 40.9 | 40.8 | > 100 | 32.3 | 41.7 | – |
| CC1CN=C(N(C(=O)Nc2ccc(Cl)cc2)c2cccc(Cl)c2)S1 (stereo not given) | > 100 | > 100 | 84.6 | – | > 100 | > 100 | > 100 | – | > 100 | > 100 | > 100 | > 100 | > 100 | > 100 | 65.4 | – | 62.1 | > 100 | – | > 100 |
| O=C1/C(=C/c2ccc([N+](=O)[O-])cc2)CCCc2ccccc21 | > 100 | > 100 | > 100 | > 100 | > 100 | > 100 | > 100 | > 100 | > 100 | > 100 | > 100 | > 100 | > 100 | > 100 | > 100 | – | > 100 | 75.9 | > 100 | – |
| Cc1ccc([N+](=O)[O-])cc1NC(=O)C(=O)Cc1nc2ccc(C(=O)c3ccccc3)cc2[nH]c1=O | > 100 | > 100 | > 100 | – | > 100 | – | > 100 | – | > 100 | > 100 | > 100 | > 100 | > 100 | > 100 | > 100 | > 100 | > 100 | – | – | – |
| COc1c(C)c(C/C=C(\C)CC/C=C(\C)CC/C=C(\C)CC/C=C(\C)CCC=C(C)C)c(OC)c(OC)c1OC | 48.1 | 33.3 | – | 55.1 | 44.2 | > 100 | 46.1 | – | 44.2 | – | 54.7 | > 100 | 70.4 | – | 31.8 | > 100 | 69 | > 100 | > 100 | – |
| COc1nc2c(c(=O)[nH]1)N=C(c1ccccc1)CC(c1ccccc1)N2 (stereo not given) | > 100 | > 100 | > 100 | 60.3 | > 100 | > 100 | > 100 | 75 | > 100 | > 100 | – | > 100 | > 100 | – | > 100 | 71.7 | – | – | > 100 | – |
| CCOC(=O)c1ccc(NCc2ccc3nc(OC)c(OC)nc3c2)cc1 | > 100 | > 100 | > 100 | > 100 | > 100 | > 100 | > 100 | – | > 100 | > 100 | > 100 | > 100 | > 100 | > 100 | > 100 | – | – | – | > 100 | > 100 |
| CC(=O)/C(=C/N1CC(=O)NC1=S)C(=O)Nc1ccccc1C | > 100 | > 100 | > 100 | – | > 100 | > 100 | > 100 | – | > 100 | > 100 | – | > 100 | > 100 | > 100 | > 100 | > 100 | > 100 | – | > 100 | > 100 |
| CCSC1=N/C(=C\c2ccco2)C(Nc2ccc(C)cc2)=N1 | > 100 | > 100 | – | > 100 | > 100 | > 100 | > 100 | > 100 | > 100 | > 100 | > 100 | > 100 | > 100 | – | > 100 | – | > 100 | > 100 | > 100 | – |
